Tested on: acetic acid induced writhing syndrome
Assay: acetic acid induced writhing syndrome in mice
Assay type: in vivo, mice (NMRI)
Settings: for ED50: Mus musculus, sc, dose giving 50 per cent protection against writhings, s.c. 30 minutes before acetic acid 0.5 per cent i.p., writhings counted 5-15 minutes after; for inhibition (ED50 table): s.c. 30 minutes before acetic acid
Procedure: The pharmaceutical properties of the compounds of the invention can be illustrated by determining their capability to antagonize the acetic acid induced writhing syndrome in mice.
In mice i.p. injection of acetic acid induces a writhing syndrome which is antagonized by analgesics (Siegmund et al., Proc. Soc. exp. Biol. 95, 729-731 (1957); Eckhardt et al., Proc. Soc. exp. Biol. 98, 186-188 (1958).
Test procedure: Acetic acid 0.5 per cent is injected i.p. (0.15 ml/10g body weight) to 6 mice (NMRI, either sex weighing 20-25 g) pretreated with physiological saline (controls) and to 6 mice pretreated with test substance. In the controls acetic acid induces a syndrome characterized by contraction of abdomen, turning of trunk and extension of hind limbs. Saline and test substances are administered s.c. 30 minutes before acetic acid. The number of writhings is counted 5-15 minutes after injection of acetic acid. The activity is expressed as per cent protection=
(Control drug)/Control×100
The effect of active substances is evaluated by a dose response curve, log dose on the abscissa, and per cent protection on the ordinate. The potency is expressed as the dose (ED50) in mg/kg giving 50 per cent protection against writhings. Test results obtained by testing some compounds of the invention will appear from the following table.

| SMILES | ED50 [mg/kg] | further results |
| --- | --- | --- |
| Cc1noc(C2(c3ccccc3)CCN(C)CC2)n1.Cl [Compound 1, 1-Methyl-4-(3-methyl-1,2,4-oxadiazol-5-yl)-4-phenylpiperidine hydrochloride] | 5.7 |  |
| CN1CCC(c2ccccc2)(c2nc(-c3ccccc3)no2)CC1 [Compound 3, 1-methyl-4-(3-phenyl-1,2,4-oxadiazol-5-yl)-4-phenylpiperidine] |  | inhibition (ED50 table) (at 3 (table head mg/kg)): 41% |
| c1ccc(C2(c3nc(C4CC4)no3)CCNCC2)cc1 [Compound 13, 4-(3-cyclopropyl-1,2,4-oxadiazol-5-yl)-4-phenylpiperidine] | 2.9 |  |
| O=C(O)C(=O)O.c1ccc(OCCCCN2CCC(c3ccccc3)(c3nc(C4CC4)no3)CC2)cc1 [Compound 16, 4-(3-cyclopropyl-1,2,4-oxadiazol-5-yl)-1-(4-phenoxybutyl)-4-phenylpiperidine oxalate] |  | inhibition (ED50 table) (at 10 (table head mg/kg)): 34% |
| COCc1noc(C2(c3ccccc3)CCN(C)CC2)n1.Cl [Compound 4, 1-methyl-4-(3-methoxymethyl-1,2,4-oxadiazol-5-yl)-4-phenylpiperidine hydrochloride] | 3 |  |
| CON=CC1(c2ccccc2)CCN(C)CC1.O=C(O)C(=O)O [Compound 10, 4-Methoxyiminomethyl-1-methyl-4-phenyl-piperidine oxalate] | 3.2 |  |
| CN1CCC(c2ccccc2)(c2nc(C3CC3)no2)CC1.Cl [Compound 2, 1-methyl-4-(3-cyclopropyl-1,2,4-oxadiazol-5-yl)-4-phenylpiperidine hydrochloride] | 7.6 |  |
| CCOC(=O)C1(c2ccccc2)CCN(C)CC1 [Pethidine, reference compound] | 9.25 |  |

— patent US4845095A, “4-phenylpiperidine compounds and their use” (A/S Ferrosan, priority 1987, dated 1989)
